{"source": "patent US20130005811A1", "about": "“ANTIMICROBIAL TREATMENT FOR SEEDS AND SPROUTS” (priority 2010, published 2013)", "key": {"alfalfa seeds": {"system": "alfalfa seeds", "assay": "Determination of alfalfa seed germination percentage", "assay_type": "in vivo", "details": "for Germination rate, average: average of 3 replicas", "procedure": "Treated and non-treated seeds (5 g or number of seeds counted per replicate) were placed on the surface of a plastic tray. Three plastic trays were stacked vertically and top tray was filled with 100 ml of sterile deionized water or tap water which fed to the lower trays to maintain uniform moisture content for the seeds. The seeds were incubated at 22° C. for 72 hr. Each evaluation was based on three replicates of 200-400 seeds each. A seed was considered to have germinated if the seed coat was broken and a visible sprout was extending at least 8 mm from the original seed. Swollen seeds or ruptured seeds with sprout tissue still inside were not counted as germinated, because such seeds rarely sprouted completely after an additional 24 hr of incubation."}, "E. coli O157:H7 [1]": {"system": "E. coli O157:H7", "assay": "Inactivation of E. coli O157:H7 on alfalfa seeds inoculated with 10^8 CFU/g", "assay_type": "cell-based, Escherichia coli O157:H7", "procedure": "Five isolates of Escherichia coli O157:H7, including strain 932 (human isolate), E009 (beef isolate), E0018 (cattle isolate), E0122 (cattle isolate), E0139 (deer jerky isolate); and five isolates of Salmonella typhimurium DT104, including strain H2662 (cattle isolate), 11942A (cattle isolate), 13068A (cattle isolate), 152N17-1 (dairy isolate) and H3279 (human isolate) were used. Nalidixic acid-resistant (50 μg/ml) E. coli O157:H7 were used to facilitate enumeration. Each E. coli O157:H7 and Salmonella strain was grown in tryptic soy broth (TSB, Beckon Dickinson, Sparks, Md.) at 37° C. for 18 hr. Approximately equal cell numbers of each of the five strains were combined and used as a 5-strain mixture with cell numbers being adjusted by spectrophotometric (Spectronic Instruments, Rochester, N.Y.) determination as described in Zhao et al., (2009) J. Food Prot. 72: 928-936, incorporated herein by reference in its entirety. Bacterial cell numbers were confirmed by plating 0.1 ml of serial dilutions (1:10) in 0.1% peptone on tryptic soy agar (TSA, Beckon Dickinson) and Sorbitol MacConkey agar (SMA, Oxoid, Hampshire, UK) for E. coli O157:H7, and TSA and XLD agar (Beckon Dickinson) for Salmonella and incubating all plates at 37° C. for 24 hr, after which colonies were counted.\nLevulinic acid (0.5%) and 0.05% sodium dodecyl sulfate (SDS) obtained from Sigma-Aldrich (St. Louis, Mo.) were tested in combination at 21±2° C. for their antimicrobial activity to E. coli O157:H7 and S. typhimurium on alfalfa seeds as a wash treatment. Calcium hypochlorite (Arch Chemicals, Smyrna, Ga.) at 20,000 μg/ml (ppm) was used as the positive control, and deionized water was used as the negative control.\nBefore each trial, 25 ml of sterile tap water and 25 g of alfalfa seeds were added to a WHIRL-PAK® bag (Nasco, Fort Atkinson, Wis.) and pummeled in a stomacher blender at 150 rpm for 1 min. Duplicate 0.1 ml portions of the contents were plated on SMA, XLD, and TSA plates to detect E. coli O157:H7 and Salmonella, and enumerate aerobic bacteria counts according to the protocols described below. Only E. coli O157:H7-negative and Salmonella-negative alfalfa seeds were used. Dry seeds (50 g) were individually placed in a sterilized glass beaker (1 L) and 5 ml of a mixture of E. coli O157:H7 or S. typhimurium DT 104 (high inocula at 10^8-10^9 CFU/ml and low inocula at 10^3-10^4 CFU/ml) was inoculated on the surface of the seeds in each glass beaker under a laminar flow hood. A sterile plastic spoon was used to mix for 2 min the seeds with bacterial suspension. The glass beakers were held in a laminar flow hood for 1 hr, 4 hr, 24 hr, 48 hr, and 72 hr with intermittent mixing by plastic spoon before use for chemical treatment.\nInactivation of E. coli O157:H7 and Salmonella on Alfalfa Seeds: Inoculated, dried alfalfa seeds (50 g samples) were placed in a 1000 ml glass beaker containing 200 ml of treatment solution and agitated by a magnetic stir bar at 150 ppm at 21° C. for 0, 1, 2, 5, 10, 20, 30, and 60 min. Following treatment, 25 g of seeds was placed in a stomacher bag containing 25 ml 0.1M phosphate buffer, pH 7.2 (PBS) for levulinic acid plus SDS-treated seeds or neutralizing buffer (50×) for calcium hypochlorite-treated seeds and pummeled for 1 min. at 150 rpm in a stomacher blender (Seward, Ltd., Worthing, England). The suspension was serially (1:10) diluted in 0.1% peptone water and 0.1 ml of each dilution was surface-plated in duplicate onto TSA and Sorbitol MacConkey agar containing 50 μg nalidixic acid/ml (TSA-NA and SMA-NA) for E. coli O157:H7, and on TSA and XLD containing ampicillin (32 μg/ml), tetracycline (16 μg/ml) and streptomycin (64 μg/ml) (TSA+ and XLD+) for S. typhimurium DT 104. All plates were incubated at 37° C. for 48 hr."}, "E. coli O157:H7 [2]": {"system": "E. coli O157:H7", "assay": "E. coli O157:H7 on alfalfa seeds with an initial inoculum of 10^4 CFU/g", "assay_type": "cell-based, Escherichia coli O157:H7"}, "[3]": {"details": "treatment for 1 h at 21° C., Ca(OCl)2 pH 11.4"}, "[4]": {"details": "dried at 21° C. for 2 hr, treated for 20 min (10 min in beaker and 10 min in a stomacher bag) at 21° C."}}, "note": "Values joined by “and” are separate entries in the source; they are usually repeats but may differ in a detail not shown here. Equal values may be shown once. Marks after values point to notes of the source that are not given here."}
{"molecule": "[Ca+2].[O-]Cl.[O-]Cl", "note": "[20,000 ppm, Ca(OCl)2, pH 11.4, Calcium hypochlorite]", "values": [{"measurement": "Effect on alfalfa seed germination", "setting": "alfalfa seeds; 1 hr at 21° C., compared to tap water", "result": "substantially reduced germination percentage"}, {"measurement": "Germination rate, average", "setting": "alfalfa seeds; [3]", "result": 47, "unit": "%"}, {"measurement": "Germination rate, average", "setting": "alfalfa seeds; treatment for 1 h at 21° C., listed as 20,000 ppm calcium hypochlorite", "result": 47.3, "unit": "%"}, {"measurement": "Germination rate, average", "setting": "alfalfa seeds; treatment for 1 h at 21° C., row", "result": 47, "unit": "%"}, {"measurement": "Germination Ratio (Percentage), per replica", "setting": "alfalfa seeds; [3]", "result": "62% and 34% and 46%"}, {"measurement": "Germination Ratio (germinated/total seeds), per replica", "setting": "alfalfa seeds; [3]", "result": "124/200 and 68/200 and 92/200"}, {"measurement": "E. coli O157:H7 counts on seeds", "setting": "E. coli O157:H7 [1]; dried for 4 hr, treated for 0 min (actual time 0 delayed by 20 to 30 seconds)", "result": "+^b (below the minimum detection level by direct plating (<0.7 log CFU/ml), but positive by enrichment culture)"}, {"measurement": "E. coli O157:H7 counts on seeds", "setting": "E. coli O157:H7 [1]; dried for 4 hr, treated for 1 min", "result": "+ (below the minimum detection level by direct plating (<0.7 log CFU/ml), but positive by enrichment culture)"}, {"measurement": "E. coli O157:H7 counts on seeds", "setting": "E. coli O157:H7 [1]; dried for 4 hr, treated for 2 min", "result": "−^c"}, {"measurement": "E. coli O157:H7 counts on seeds", "setting": "E. coli O157:H7 [1]; dried for 4 hr, treated for 5 min", "result": "+ (below the minimum detection level by direct plating (<0.7 log CFU/ml), but positive by enrichment culture)"}, {"measurement": "E. coli O157:H7 counts on seeds", "setting": "E. coli O157:H7 [1]; dried for 4 hr, treated for 10 min", "result": 1.7, "unit": "CFU/g"}, {"measurement": "E. coli O157:H7 counts on seeds", "setting": "E. coli O157:H7 [1]; dried for 4 hr, treated for 20 min", "result": 2.0, "unit": "CFU/g"}, {"measurement": "E. coli O157:H7 counts on seeds", "setting": "E. coli O157:H7 [1]; dried for 4 hr, treated for 30 min", "result": 1.7, "unit": "CFU/g"}, {"measurement": "E. coli O157:H7 counts on seeds", "setting": "E. coli O157:H7 [1]; dried for 4 hr, treated for 60 min", "result": "+ (below the minimum detection level by direct plating (<0.7 log CFU/ml), but positive by enrichment culture)"}, {"measurement": "E. coli O157:H7 counts on seeds", "setting": "E. coli O157:H7 [1]; dried for 24 hr, treated for 0 min", "result": "+ (below the minimum detection level by direct plating (<0.7 log CFU/ml), but positive by enrichment culture)"}, {"measurement": "E. coli O157:H7 counts on seeds", "setting": "E. coli O157:H7 [1]; dried for 24 hr, treated for 1 min", "result": "−"}, {"measurement": "E. coli O157:H7 counts on seeds", "setting": "E. coli O157:H7 [1]; dried for 24 hr, treated for 2 min", "result": "−"}, {"measurement": "E. coli O157:H7 counts on seeds", "setting": "E. coli O157:H7 [1]; dried for 24 hr, treated for 5 min", "result": "−"}, {"measurement": "E. coli O157:H7 counts on seeds", "setting": "E. coli O157:H7 [1]; dried for 24 hr, treated for 10 min", "result": "+ (below the minimum detection level by direct plating (<0.7 log CFU/ml), but positive by enrichment culture)"}, {"measurement": "E. coli O157:H7 counts on seeds", "setting": "E. coli O157:H7 [1]; dried for 24 hr, treated for 20 min", "result": "−"}, {"measurement": "E. coli O157:H7 counts on seeds", "setting": "E. coli O157:H7 [1]; dried for 24 hr, treated for 30 min", "result": "−"}, {"measurement": "E. coli O157:H7 counts on seeds", "setting": "E. coli O157:H7 [1]; dried for 24 hr, treated for 60 min", "result": "+ (below the minimum detection level by direct plating (<0.7 log CFU/ml), but positive by enrichment culture)"}, {"measurement": "E. coli O157:H7 counts on seeds", "setting": "E. coli O157:H7 [1]; dried for 48 hr, treated for 0 min", "result": "+ (below the minimum detection level by direct plating (<0.7 log CFU/ml), but positive by enrichment culture)"}, {"measurement": "E. coli O157:H7 counts on seeds", "setting": "E. coli O157:H7 [1]; dried for 48 hr, treated for 1 min", "result": "−"}, {"measurement": "E. coli O157:H7 counts on seeds", "setting": "E. coli O157:H7 [1]; dried for 48 hr, treated for 2 min", "result": "+ (below the minimum detection level by direct plating (<0.7 log CFU/ml), but positive by enrichment culture)"}, {"measurement": "E. coli O157:H7 counts on seeds", "setting": "E. coli O157:H7 [1]; dried for 48 hr, treated for 5 min", "result": "−"}, {"measurement": "E. coli O157:H7 counts on seeds", "setting": "E. coli O157:H7 [1]; dried for 48 hr, treated for 10 min", "result": "−"}, {"measurement": "E. coli O157:H7 counts on seeds", "setting": "E. coli O157:H7 [1]; dried for 48 hr, treated for 20 min", "result": "−"}, {"measurement": "E. coli O157:H7 counts on seeds", "setting": "E. coli O157:H7 [1]; dried for 48 hr, treated for 30 min", "result": "−"}, {"measurement": "E. coli O157:H7 counts on seeds", "setting": "E. coli O157:H7 [1]; dried for 48 hr, treated for 60 min", "result": "−"}, {"measurement": "E. coli O157:H7 counts on seeds", "setting": "E. coli O157:H7 [1]; dried for 72 hr, treated for 0 min", "result": "+ (below the minimum detection level by direct plating (<0.7 log CFU/ml), but positive by enrichment culture)"}, {"measurement": "E. coli O157:H7 counts on seeds", "setting": "E. coli O157:H7 [1]; dried for 72 hr, treated for 1 min", "result": "+ (below the minimum detection level by direct plating (<0.7 log CFU/ml), but positive by enrichment culture)"}, {"measurement": "E. coli O157:H7 counts on seeds", "setting": "E. coli O157:H7 [1]; dried for 72 hr, treated for 2 min", "result": "+ (below the minimum detection level by direct plating (<0.7 log CFU/ml), but positive by enrichment culture)"}, {"measurement": "E. coli O157:H7 counts on seeds", "setting": "E. coli O157:H7 [1]; dried for 72 hr, treated for 5 min", "result": "−"}, {"measurement": "E. coli O157:H7 counts on seeds", "setting": "E. coli O157:H7 [1]; dried for 72 hr, treated for 10 min", "result": "+ (below the minimum detection level by direct plating (<0.7 log CFU/ml), but positive by enrichment culture)"}, {"measurement": "E. coli O157:H7 counts on seeds", "setting": "E. coli O157:H7 [1]; dried for 72 hr, treated for 20 min", "result": "+ (below the minimum detection level by direct plating (<0.7 log CFU/ml), but positive by enrichment culture)"}, {"measurement": "E. coli O157:H7 counts on seeds", "setting": "E. coli O157:H7 [1]; dried for 72 hr, treated for 30 min", "result": "−"}, {"measurement": "E. coli O157:H7 counts on seeds", "setting": "E. coli O157:H7 [1]; dried for 72 hr, treated for 60 min", "result": "−"}, {"measurement": "Reduction of E. coli O157:H7 population", "setting": "E. coli O157:H7 [1]; seeds dried for 4 hr, treated for up to 60 min", "result": "greater than 6 log CFU/g"}, {"measurement": "E. coli O157:H7 detection after treatment", "setting": "E. coli O157:H7 [1]; seeds dried for 24 hr, treated for 5 min", "result": "only detectable on seeds by selective enrichment culture"}, {"measurement": "E. coli O157:H7 on treated seeds by direct plating method", "setting": "E. coli O157:H7 [2]; 10 min in glass beaker then pummeled 10 min in stomacher bag", "result": "negative"}, {"measurement": "E. coli O157:H7 count in sample No. 1-10 (seeds)", "setting": "E. coli O157:H7 [2]; [4]", "result": "−"}, {"measurement": "E. coli O157:H7 count in sample No. 1-10 (treated supernatant)", "setting": "E. coli O157:H7 [2]; [4]", "result": "−"}, {"measurement": "E. coli O157:H7 in solutions used for treatment", "setting": "E. coli O157:H7 [2]; enrichment culture after use", "result": "negative"}, {"measurement": "E. coli O157:H7 detection in samples treated for 10 min", "setting": "E. coli O157:H7 [2]; none pathogen-positive by direct plating", "result": "sporadically positive by enrichment culture assay"}]}
